Among the data in patent US5753664A, “Heterocyclic compounds, their production and use” (Takeda Chemical Industries, Ltd., priority 1995, dated 1998) are Tumor volume gain, T/C and IC50 values, retold here.

Assay [1] relates to human prostatic carcinoma cells PC-3. Kind of assay: Inhibitory action against the growth of subcutaneously implanted tumor (Test Example 2, subcutaneous dosing). It is filed as in vivo, human; BALB/c nu/nu mouse. Conditions: 80 mg/kg s.c., Mon/Wed/Fri for 3 weeks; for Tumor volume gain: 46th day after transplantation, mean ± SD; for T/C: 46th day, ratio of tumor volume gain treated/control. The procedure: Inhibitory action of the test compounds against the growth of subcutaneously implanted tumor
The human prostatic carcinoma cells PC-3, which are maintained in vitro, were harvested using 0.05% trypsin, washed with Ham's F12K medium containing 10% serum, and then suspended in PBS (phosphate-buffered saline) at a concentration of 3×10^7 cells/ml. The aliquot of 100 μl was transplanted into the right central flank region of a 7-week old, male BALB/c nu/nu mouse using a syringe with a 25 gauge needle. After the size of the resulting tumor mass was measured on the 25th day after the transplantation, the mice were divided into groups of five animals (the average tumor volume of each group was between […]), and then the treatment with test compounds was commenced. Tumor volume was calculated according to the formulation: tumor volume =0.5×(the longest diameter)×(the shortest diameter)^2 after two-dimensional measurement of the tumor mass by a caliper. The test compounds were suspended in 0.5% methylcellulose/physiological saline, and subcutaneously injected at a volume of 10 μl/g body weight.
Thereafter the test compounds were administered every Monday, Wednesday and Friday for 3 weeks. The inhibitory action was assessed on the 46th day after the transplanation by the ratio of tumor volume gain of treated groups to that of the control group(T/C %). The dosage of the test compounds was expressed as mg/kg/shot.

In assay [2] the test system is Prostate carcinoma cell line PC-3. Kind of assay: In vitro prostate carcinoma cell proliferation inhibition assay (MTT). The conditions noted are these: Homo sapiens, 72 h; PC-3, 3 days incubation, MTT; read-out: IC50 PC-3. It is filed as cell-based, human. On the procedure:
In vitro prostate carcinoma cell proliferation inhibition assay
Prostate carcinoma cell line PC-3 cells were suspended in Ham's F-12K medium (Flow Laboratories or Dainippon Pharmaceutical Co,. Ltd) supplemented with 10% fetal calf serum, and seeded in a 96-well microtiter plate (5000 cells/50 or 75 μl/well). The plate was then incubated in a 5% CO2 incubator at 37° C. On the following day, a 3-fold dilution series with the medium with serum of the test compound in N,N-dimethylformamide (DMF) (50 or 25 μl/well) were added (final volume […]) and the plate was incubated for another 3 days. Following addition of a thiazolyl-tetrazolium (MTT) solution, absorbance based on the viable cell number was determined "Tada et al., Journal of Immunological Methods, 93, 157 (1986)". With the estimated cell number in the control group to which the test compound solution was not added being taken as 100%, the percentage of the estimated cell number in each test group was determined and the concentration (IC50 value) of the test compound which was required for 50% inhibition of the estimated viable cell number in the control group was calculated.

The subject of assay [3] is human prostatic carcinoma cells PC-3. Kind of assay: Inhibitory action against the growth of subcutaneously implanted tumor (Test Example 3, oral dosing). The assay is classed as in vivo, human; BALB/c nu/nu mouse. Conditions: 75 mg/kg p.o., once a day for 3 weeks. The procedure:
(§1) Inhibitory action of the test compound against the growth of subcutaneously implanted tumor
The human prostatic carcinoma cells PC-3, which are maintained in vitro, were harvested using 0.05% trypsin, washed with Ham's F12K medium containing 10% serum, and then suspended in PBS (phosphate-buffered saline) at a concentration of 3×10^7 cells/ml. The aliquot of 100 μl was transplanted into the right central flank region of a 7-week old, male BALB/c nu/nu mouse using a syringe with a 25 guage needle. After the size of the resulting tumor mass was measured on the 32nd day after the transplantation, the mice were divided into groups of five animals (the average tumor volume of each group was between 273 and 293 mm^3), and then the treatment with test compound was commenced. Tumor volume was calculated according to the formulation: tumor volume =0.5×(the longest diameter)×(the shortest diameter)2 after two-dimensional measurement of the tumor mass by a caliper. The test compound was suspended in 0.5% methylcellulose/physiological saline, and orally administered at a volume of 10 μl/g body weight. […] The inhibitory action was assessed on the 53rd day after the transplanation, the first day after the last administration, by the ratio of tumor volume gain of treated groups to that of the control group (T/C %). The dosage of the test compounds was expressed as mg/kg/shot.

Assay [4] has the same test system. Kind of assay: Inhibitory action against the growth of subcutaneously implanted tumor (Test Example 4, oral dosing). It is filed as in vivo, human; BALB/c nu/nu mouse. Conditions: once a day for 3 weeks; for Tumor volume gain: 52nd day after transplantation, mean ± SD; for T/C: 52nd day, ratio of tumor volume gain treated/control. The procedure: as §1
The human prostatic carcinoma cells PC-3, which are maintained in vitro, were harvested using 0.05% trypsin, washed with Ham's F12K medium containing 10% serum, and then suspended in PBS (phosphate-buffered saline) at a concentration of 3×10^7 cells/ml. The aliquot of 100 μl was transplanted into the right central flank region of a 7-week old, male BALB/c nu/nu mouse using a syringe with a 25 gauge needle. After the size of the resulting tumor mass was measured on the 31st day after the transplanation, the mice were divided into groups of five animals (the average tumor volume of each group was between 273 and 293 mm^3), and then the treatment with test compound was commenced. Tumor volume was calculated according to the formulation: tumor volume=0.5×(the longest diameter)×(the shortest diameter)^2 after two-dimensional measurement of the tumor mass by a caliper. The test compound was suspended in 0.5% methylcellulose/physiological saline, and orally administered at a volume of 10 μl/g body weight. Thereafter the test compound was administered once a day for 3 weeks. The inhibitory action was assessed on the 52nd day after the transplanation, the first day after the last administration, by the ratio of tumor volume gain of treated groups to that of the control group (T/C %). The dosage of the test compound is expressed as mg/kg/shot.

`Cc1cccc2nc(SCc3ccc(C(=O)c4ccc(Cl)cc4)cc3)n(C)c(=O)c12` [Example 42, 2-[4-(4-Chlorobenzoyl)benzylthio]-3,5-dimethyl-quinazolin-4-one]: in assay [1], the Tumor volume gain stood at 329 ± 252 mm^3 and the T/C was determined as 36%.

For the molecule `O=C(c1ccc(Cl)cc1)c1ccc(Cn2ccn3c(=O)c4c(nc23)CCCC4)cc1` [Example 189, 1-[4-(4-Chlorobenzoyl)benzyl]-6,7,8,9-tetrahydroimidazo[2,1-b]quinazolin-5(1H)-one], the IC50 in assay [2] was found to be 1.9 nM. This molecule also displayed a Tumor volume gain in assay [3] (53rd day after transplantation, mean ± SD) of 697 ± 199 mm^3. Further, the T/C in assay [3] (53rd day, ratio of tumor volume gain treated/control) is on record as 53%.

`Cc1c(OCc2ccc(C(=O)c3ccc(C(F)(F)F)cc3)cc2)nc2n(c1=O)CCCC2` [Example 385, 3-Methyl-2-[4-(4-trifluoromethylbenzoyl)benzyloxy]-6,7,8,9-tetrahydro-4H-pyrido[1,2-a]pyrimidin-4-one]: the IC50 in assay [2] turned out to be 4.6 nM. For the same molecule, the Tumor volume gain in assay [4] (25 mg/kg p.o.) was 893 ± 247 mm^3; in assay [4] (50 mg/kg p.o.) it was 732 ± 156 mm^3; in assay [4] (75 mg/kg p.o.) it was 596 ± 176 mm^3. In addition, the T/C is recorded as 63% in assay [4] (25 mg/kg p.o.), 52% in assay [4] (50 mg/kg p.o.) and 42% in assay [4] (75 mg/kg p.o.).

Consider `Cn1c(SCc2ccc(C(=O)c3ccc(Cl)cc3)cc2)nc2ccsc2c1=O` [Example 7, 2-[4-(4-Chlorobenzoyl)benzyl]thio-3-methylthieno-[3,2-d]pyrimidin-4(3H)-one], for which, in assay [1], the Tumor volume gain is 445 ± 110 mm^3 and the T/C worked out at 49%.
